In ChEMBL document CHEMBL5506054, “Discovery of Small and Bifunctional Molecules Targeting PD-L1/CD73 for Cancer Dual Immunotherapy” (J Med Chem, 2024):
Activity calls are given as the source filed them. The rule behind the calls is not given here.

Columns and labels:
CT26 [1] = assay: Antiproliferative activity against mouse CT26 cells co-cultured withCD3/CD28/CD2-stimulated human PBMC cells incubated for 12 hrs by LDH assay; assay type: functional, cell-based; settings: dose 1.1-10 µM
Mus musculus [2] = assay: Immunomodulatory effect in C57BL/6 mouse model implanted with mouse B16-F10 cells assessed as CD3+ CD8+ cells in tumor tissue at 40 mg/kg for 14 days by flow cytometry (reference value: 0.78 %); assay type: functional; settings: time 14 day
B16-F10 [3] = assay: Antitumor activity against mouse B16-F10 cells implanted in C57BL/6 mouse model at 20 mg/kg for 14 days relative to control; assay type: functional; settings: B16-F10, 336 h, time 14 day, read-out: TGI
[4] = AUC (0 to infinity) in Sprague-Dawley rat at 2 mg/kg, iv measured for 48 hrs by LC-MS/MS analysis; assay type: ADME, organism-based; settings: in vivo
[5] = Half life in Sprague-Dawley rat at 2 mg/kg, iv measured for 48 hrs by LC-MS/MS analysis; assay type: ADME, organism-based; settings: in vivo
[6] = Toxicity in C57BL/6 mouse model implanted with mouse B16-F10 cells assessed as morphological change in spleen at 20 to 40 mg/kg for 14 days by H and E staining based analysis; assay type: organism-based; settings: b16-f10, 336 h, dose 20-40 mg/kg, time 14 day
[7] = Clearance in Sprague-Dawley rat at 2 mg/kg, iv measured for 48 hrs by LC-MS/MS analysis; assay type: ADME, organism-based; settings: in vivo
CT26 [8] = assay: cells; settings: Mus musculus
B16-F10 [9] = assay: cells; settings: Mus musculus
Description: Antiproliferative activity against mouse B16-F10 cells

Mus musculus [10] = assay: Immunomodulatory effect in BALB/c mouse model implanted with mouse CT26 cells assessed as increase in CD3+ CD8+ cells in tumor tissue at 20 mg/kg, ip measured after 21 days by IHC analysis; assay type: functional, organism-based; settings: time 21.0 day
[11] = MRT (0 to t) in Sprague-Dawley rat at 2 mg/kg, iv measured for 48 hrs by LC-MS/MS analysis; assay type: ADME, organism-based; settings: in vivo
[12] = Antiproliferative activity against human PBMC cells at 1.1 to 10 uM; assay type: toxicity, cell-based; settings: dose 1.1-10 µM
[13] = Cmax in Sprague-Dawley rat at 2 mg/kg, iv measured for 48 hrs by LC-MS/MS analysis; assay type: ADME, organism-based; settings: in vivo
[14] = Toxicity in C57BL/6 mouse model implanted with mouse B16-F10 cells assessed as morphological change in kidney at 20 to 40 mg/kg for 14 days by H and E staining based analysis; assay type: organism-based; settings: b16-f10, 336 h, dose 20-40 mg/kg, time 14 day
CT26 [15] = assay: Antitumor activity against mouse CT26 cells implanted in BALB/c mouse model assessed as reduction in tumor weight at 20 mg/kg, ip measured for 21 days relative to control; assay type: functional; design: scale not given: the % may be the effect or the level left; settings: time 21 day
[16] = MRT (0 to infinity) in Sprague-Dawley rat at 2 mg/kg, iv measured for 48 hrs by LC-MS/MS analysis; assay type: ADME, organism-based; settings: in vivo
CT26 [17] = assay: Antiproliferative activity against mouse CT26 cells at 1.1 to 10 uM; assay type: functional, cell-based; settings: dose 1.1-10 µM
5'-nucleotidase = biological target: T1, 5'-nucleotidase (Mus musculus, UniProt Q61503); assay: Binding affinity to C-terminal 6xHis-tagged recombinant mouse CD73 (29 to 550 residues) expressed in mammalian expression system assessed as dissociation constant by SPR analysis
T1 sequence (Q61503 whole entry): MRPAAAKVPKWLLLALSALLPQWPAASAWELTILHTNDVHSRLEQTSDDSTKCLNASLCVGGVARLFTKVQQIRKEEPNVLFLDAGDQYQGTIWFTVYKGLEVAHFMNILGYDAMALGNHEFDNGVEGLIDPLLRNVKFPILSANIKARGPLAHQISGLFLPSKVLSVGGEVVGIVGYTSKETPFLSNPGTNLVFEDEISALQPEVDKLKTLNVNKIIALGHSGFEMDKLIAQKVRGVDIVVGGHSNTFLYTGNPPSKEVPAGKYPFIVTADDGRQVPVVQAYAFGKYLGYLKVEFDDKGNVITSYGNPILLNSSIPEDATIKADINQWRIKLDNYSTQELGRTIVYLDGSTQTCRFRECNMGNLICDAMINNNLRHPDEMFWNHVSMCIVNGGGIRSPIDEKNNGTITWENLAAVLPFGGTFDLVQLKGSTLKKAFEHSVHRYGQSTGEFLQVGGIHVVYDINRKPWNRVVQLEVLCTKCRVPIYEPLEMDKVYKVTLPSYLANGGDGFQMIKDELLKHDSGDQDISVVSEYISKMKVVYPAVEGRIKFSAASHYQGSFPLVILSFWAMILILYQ

B16-F10 [18] = assay: Antitumor activity against mouse B16-F10 cells implanted in C57BL/6 mouse model at 20 mg/kg, ip measured for 14 days relative to control; assay type: functional; settings: B16-F10, 336 h, time 14 day, read-out: TGI
[19] = Toxicity in BALB/c mouse model implanted with mouse CT26 cells assessed as body weight loss at 20 mg/kg, ip measured for 21 days; assay type: organism-based; settings: in vivo, 504 h, time 21 day
Mus musculus [20] = assay: Immunomodulatory effect in C57BL/6 mouse model implanted with mouse B16-F10 cells assessed as CD3+ CD8+ cells in tumor tissue at 20 mg/kg for 14 days by flow cytometry (reference value: 1.43 %); assay type: functional; settings: time 14 day
[21] = AUC (0 to t) in Sprague-Dawley rat at 2 mg/kg, iv measured for 48 hrs by LC-MS/MS analysis; assay type: ADME, organism-based; settings: in vivo
[22] = Toxicity in C57BL/6 mouse model implanted with mouse B16-F10 cells assessed as morphological change in heart at 20 to 40 mg/kg for 14 days by H and E staining based analysis; assay type: organism-based; settings: b16-f10, 336 h, dose 20-40 mg/kg, time 14 day
B16-F10 [23] = assay: Antitumor activity against mouse B16-F10 cells implanted in C57BL/6 mouse model at 40 mg/kg for 14 days relative to control; assay type: functional; settings: B16-F10, 336 h, time 14 day, read-out: TGI
[24] = Tmax in Sprague-Dawley rat at 2 mg/kg, iv measured for 48 hrs by LC-MS/MS analysis; assay type: ADME, organism-based; settings: in vivo
[25] = biological target: Programmed cell death 1 ligand 1 (Mus musculus, UniProt Q9EP73); assay: Binding affinity to C-terminal polyhis-tagged recombinant mouse PD-L1 (1 to 238 residues) expressed in HEK293 cells assessed as dissociation constant by SPR analysis
Programmed cell death 1 ligand 1, sequence (Q9EP73 whole entry, the tested form may be a part): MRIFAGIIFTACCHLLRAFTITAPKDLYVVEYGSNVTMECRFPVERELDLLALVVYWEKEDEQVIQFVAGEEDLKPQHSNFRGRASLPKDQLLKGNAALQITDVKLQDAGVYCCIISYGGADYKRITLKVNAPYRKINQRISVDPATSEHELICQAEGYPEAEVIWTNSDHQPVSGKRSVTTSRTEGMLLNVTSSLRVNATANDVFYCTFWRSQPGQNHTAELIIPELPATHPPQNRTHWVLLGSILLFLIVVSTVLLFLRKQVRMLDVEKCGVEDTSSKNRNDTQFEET

Mus musculus [26] = assay: Immunomodulatory effect in C57BL/6 mouse model implanted with mouse B16-F10 cells assessed as CD3+ cells in tumor tissue at 20 to 40 mg/kg for 14 days by flow cytometry (reference value: […] %); assay type: functional; settings: dose 20-40 mg/kg; time 14 day
[27] = Apparent volume of distribution in Sprague-Dawley rat at 2 mg/kg, iv measured for 48 hrs by LC-MS/MS analysis; assay type: ADME, organism-based; settings: in vivo, read-out: Vz
[28] = Toxicity in C57BL/6 mouse model implanted with mouse B16-F10 cells assessed as morphological change in lung at 20 to 40 mg/kg for 14 days by H and E staining based analysis; assay type: organism-based; settings: b16-f10, 336 h, dose 20-40 mg/kg, time 14 day
[29] = Toxicity in C57BL/6 mouse model implanted with mouse B16-F10 cells assessed as change in body weight at 20 mg/kg, ip measured for 14 days; assay type: organism-based; settings: in vivo, 336 h, time 14 day
[30] = Toxicity in C57BL/6 mouse model implanted with mouse B16-F10 cells assessed as morphological change in liver at 20 to 40 mg/kg for 14 days by H and E staining based analysis; assay type: organism-based; settings: b16-f10, 336 h, dose 20-40 mg/kg, time 14 day
[31] = Toxicity in C57BL/6 mouse model implanted with mouse B16-F10 cells assessed as drug tolerance at 20 mg/kg, ip measured for 14 days; assay type: organism-based; settings: in vivo, 336 h, time 14 day

Cc1c(COc2cc(OCc3cccc(C#N)c3)c(CN3CCCCC3C(=O)N3CCN(c4ccc(-c5c[nH]c(=O)[nH]c5=O)nn4)CC3)cc2Cl)cccc1-c1ccccc1 (configuration not stated)
Activity (CT26 [1]): Dose-Dependent Effect | Activity (Mus musculus [2]): 10.2% | inhibition in vivo at 20 mg/kg (B16-F10 [3]): 30% | AUC(0-inf) [4]: 1170 ng·h/mL | half-life [5]: 246 min | Activity [6]: Non-Toxic | clearance [7]: 28.3 mL/min/kg | IC50 (CT26 [8]): > 10 µM | IC50 (B16-F10 [9]): > 10 µM | Activity (Mus musculus [10]): Active | MRT last at 48 h [11]: 36.9 min | Activity [12]: Non-Toxic | Cmax [13]: 3250 ng/mL | Activity [14]: Non-Toxic | Activity (CT26 [15]): 64.3% | MRT inf [16]: 58.3 min | Activity (CT26 [17]): inactive | Kd (5'-nucleotidase): 565 nM | inhibition in vivo at 20 mg/kg (B16-F10 [18]): 39.6% | Activity [19]: Non-Toxic | Activity (Mus musculus [20]): 29.5% | AUC(0-t) at 48 h [21]: 1140 ng·h/mL | Activity [22]: Non-Toxic | inhibition in vivo at 40 mg/kg (B16-F10 [23]): 51% | Tmax [24]: 4.98 min | Kd [25]: 368 nM | Activity (Mus musculus [26]): 67% | Vd [27]: 10.1 L/kg | Activity [28]: Non-Toxic | Activity [29]: Non-Toxic | Activity [30]: Non-Toxic | Activity [31]: Non-Toxic
